Measured values published in ChEMBL document CHEMBL3885881, “DrugMatrix”.

Species: Rattus norvegicus
Assay: DrugMatrix - Regimen: Daily Repeat
Type: toxicity, organism-based, Sprague-Dawley
Parameters: regimen Daily Repeat, gender Male, age 6-8 weeks
Settings: in vivo, po, route oral GAVAGE, vehicle 100 % WATER; for ABSOLUTE BASOPHIL / ABSOLUTE EOSINOPHIL / ABSOLUTE LYMPHOCYTE / ABSOLUTE MONOCYTE / ABSOLUTE SEGMENTED NEUTROPHIL / BASOPHIL / EOSINOPHIL / ERYTHROCYTE COUNT / HEMATOCRIT / HEMOGLOBIN / LEUKOCYTE COUNT / LYMPHOCYTE / MEAN CORPUSCULAR HEMOGLOBIN / MEAN CORPUSCULAR HEMOGLOBIN CONCENTRATION / MEAN CORPUSCULAR VOLUME / MONOCYTE / NEUTROPHIL / NUCLEATED RED BLOOD CELLS / PLATELET COUNT: tissue Blood; for ALANINE AMINOTRANSFERASE / ALBUMIN / ALKALINE PHOSPHATASE / ASPARTATE AMINOTRANSFERASE / BLOOD UREA NITROGEN / CARBON DIOXIDE / CHLORIDE / CHOLESTEROL / CREATINE PHOSPHOKINASE / CREATININE / GLUCOSE / LACTATE DEHYDROGENASE / LIPASE / PHOSPHORUS / POTASSIUM / SODIUM / TOTAL BILIRUBIN / TOTAL PROTEIN / URIC ACID: tissue Plasma
[1] = 2 mg/kg, 120 h, dose level Low, time 5 day
[2] = 2000 mg/kg, 72 h, dose level High, time 3 day
[3] = 2000 mg/kg, 120 h, dose level High, time 5 day

## CC(C)(C)c1ccc(C(=O)CCCN2CCC(OC(c3ccccc3)c3ccccc3)CC2)cc1 [EBASTINE]
[1]
  ABSOLUTE BASOPHIL: 0 CELLS/uL
  ABSOLUTE EOSINOPHIL: 268.33 CELLS/uL
  ABSOLUTE LYMPHOCYTE: 11875.67 CELLS/uL
  ABSOLUTE MONOCYTE: 285.33 CELLS/uL
  ABSOLUTE SEGMENTED NEUTROPHIL: 1837.33 CELLS/uL
  BASOPHIL: 0%
  EOSINOPHIL: 1.67%
  ERYTHROCYTE COUNT: 5.47 x10E6/uL
  HEMATOCRIT: 34.03%
  HEMOGLOBIN: 13.83 G/DL
  LEUKOCYTE COUNT: 14.27 x10E3/uL
  LYMPHOCYTE: 83.33%
  MEAN CORPUSCULAR HEMOGLOBIN: 25.3 pg
  MEAN CORPUSCULAR HEMOGLOBIN CONCENTRATION: 40.67 G/DL
  MEAN CORPUSCULAR VOLUME: 62.27 fL
  MONOCYTE: 2%
  NEUTROPHIL: 13%
  NUCLEATED RED BLOOD CELLS: 0 /100WBC
  PLATELET COUNT: 1267.33 x10E3/uL
  ALANINE AMINOTRANSFERASE: 45.33 u/L
  ALBUMIN: 4.3 G/DL
  ALKALINE PHOSPHATASE: 377.33 u/L
  ASPARTATE AMINOTRANSFERASE: 74 u/L
  BLOOD UREA NITROGEN: 15.67 mg/dL
  CARBON DIOXIDE: 27.33 mmol/L
  CHLORIDE: 101 MEQ/L
  CHOLESTEROL: 75 mg/dL
  CREATINE PHOSPHOKINASE: 212.67 u/L
  CREATININE: 0.24 mg/dL
  GLUCOSE: 160.33 mg/dL
  LACTATE DEHYDROGENASE: 207.67 u/L
  LIPASE: 10 u/L
  PHOSPHORUS: 12.17 mg/dL
  POTASSIUM: 6.8 MEQ/L
  SODIUM: 140.47 MEQ/L
  TOTAL BILIRUBIN: 0.2 mg/dL
  TOTAL PROTEIN: 5.9 G/DL
  URIC ACID: 1.87 mg/dL
[2]
  ABSOLUTE BASOPHIL: 0 CELLS/uL
  ABSOLUTE EOSINOPHIL: 34.67 CELLS/uL
  ABSOLUTE LYMPHOCYTE: 11326.67 CELLS/uL
  ABSOLUTE MONOCYTE: 253 CELLS/uL
  ABSOLUTE SEGMENTED NEUTROPHIL: 2019 CELLS/uL
  BASOPHIL: 0%
  EOSINOPHIL: 0.33%
  ERYTHROCYTE COUNT: 6 x10E6/uL
  HEMATOCRIT: 36.1%
  HEMOGLOBIN: 14.77 G/DL
  LEUKOCYTE COUNT: 13.63 x10E3/uL
  LYMPHOCYTE: 83%
  MEAN CORPUSCULAR HEMOGLOBIN: 24.63 pg
  MEAN CORPUSCULAR HEMOGLOBIN CONCENTRATION: 40.9 G/DL
  MEAN CORPUSCULAR VOLUME: 60.27 fL
  MONOCYTE: 1.67%
  NEUTROPHIL: 15%
  NUCLEATED RED BLOOD CELLS: 0.33 /100WBC
  PLATELET COUNT: 1204 x10E3/uL
  ALANINE AMINOTRANSFERASE: 96.33 u/L
  ALBUMIN: 3.67 G/DL
  ALKALINE PHOSPHATASE: 316 u/L
  ASPARTATE AMINOTRANSFERASE: 119.67 u/L
  BLOOD UREA NITROGEN: 13.67 mg/dL
  CARBON DIOXIDE: 23.67 mmol/L
  CHLORIDE: 103.67 MEQ/L
  CHOLESTEROL: 57.33 mg/dL
  CREATINE PHOSPHOKINASE: 1102 u/L
  CREATININE: 0.21 mg/dL
  GLUCOSE: 195 mg/dL
  LACTATE DEHYDROGENASE: 227 u/L
  LIPASE: 8.67 u/L
  PHOSPHORUS: 11.03 mg/dL
  POTASSIUM: 4.81 MEQ/L
  SODIUM: 144.03 MEQ/L
  TOTAL BILIRUBIN: 0.1 mg/dL
  TOTAL PROTEIN: 5.2 G/DL
  URIC ACID: 1.47 mg/dL
[3]
  ABSOLUTE BASOPHIL: 0 CELLS/uL
  ABSOLUTE EOSINOPHIL: 0 CELLS/uL
  ABSOLUTE LYMPHOCYTE: 11532 CELLS/uL
  ABSOLUTE MONOCYTE: 384.67 CELLS/uL
  ABSOLUTE SEGMENTED NEUTROPHIL: 2350 CELLS/uL
  BASOPHIL: 0%
  EOSINOPHIL: 0%
  ERYTHROCYTE COUNT: 6.72 x10E6/uL
  HEMATOCRIT: 41.1%
  HEMOGLOBIN: 16.37 G/DL
  LEUKOCYTE COUNT: 14.27 x10E3/uL
  LYMPHOCYTE: 79.67%
  MEAN CORPUSCULAR HEMOGLOBIN: 24.4 pg
  MEAN CORPUSCULAR HEMOGLOBIN CONCENTRATION: 39.83 G/DL
  MEAN CORPUSCULAR VOLUME: 61.3 fL
  MONOCYTE: 3%
  NEUTROPHIL: 17.33%
  NUCLEATED RED BLOOD CELLS: 0 /100WBC
  PLATELET COUNT: 1272.67 x10E3/uL
  ALANINE AMINOTRANSFERASE: 120.67 u/L
  ALBUMIN: 3.9 G/DL
  ALKALINE PHOSPHATASE: 248 u/L
  ASPARTATE AMINOTRANSFERASE: 112.33 u/L
  BLOOD UREA NITROGEN: 16.33 mg/dL
  CARBON DIOXIDE: 28 mmol/L
  CHLORIDE: 105.67 MEQ/L
  CHOLESTEROL: 47 mg/dL
  CREATINE PHOSPHOKINASE: 523 u/L
  CREATININE: 0.22 mg/dL
  GLUCOSE: 151 mg/dL
  LACTATE DEHYDROGENASE: 262.67 u/L
  LIPASE: 8 u/L
  PHOSPHORUS: 10.77 mg/dL
  POTASSIUM: 4.79 MEQ/L
  SODIUM: 145.73 MEQ/L
  TOTAL BILIRUBIN: 0.13 mg/dL
  TOTAL PROTEIN: 5.13 G/DL
  URIC ACID: 1.23 mg/dL
